44 molecules from patent US20220096450A1, “Compounds and Methods for Treating or Preventing Heart Failure” (DREXEL UNIVERSITY, priority 2019, published 2022) can be followed below.

pIC50: −log10 of the molar value.

Chain of SQOR (Q9Y6N5 whole entry): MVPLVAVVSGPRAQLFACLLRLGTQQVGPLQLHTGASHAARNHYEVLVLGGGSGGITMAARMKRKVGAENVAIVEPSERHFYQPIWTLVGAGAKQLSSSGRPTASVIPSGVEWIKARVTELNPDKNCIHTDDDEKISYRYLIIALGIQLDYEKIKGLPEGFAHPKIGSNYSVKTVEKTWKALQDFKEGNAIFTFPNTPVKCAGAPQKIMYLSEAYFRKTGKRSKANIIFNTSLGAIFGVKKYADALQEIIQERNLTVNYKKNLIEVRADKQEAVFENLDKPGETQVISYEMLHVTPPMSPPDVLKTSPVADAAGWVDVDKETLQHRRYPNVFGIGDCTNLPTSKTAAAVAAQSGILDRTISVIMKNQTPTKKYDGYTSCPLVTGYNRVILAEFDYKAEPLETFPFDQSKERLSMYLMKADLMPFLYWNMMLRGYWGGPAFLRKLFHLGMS

One assay concerns the target SQOR (Homo sapiens, UniProt Q9Y6N5). The assay can be described thus: DCIP endpoint assay of SQOR activity. The format is biochemical. Particulars: Table 1, SAR of Set A/A′ and Set B; read-out: IC50. Here is the method:
The assay is based on the ability of reduced CoQ1, which is produced in the SQOR reaction, to nonenzymically reduce 2,6-dichloroindiphenol (DCIP) (Δεox-red=20 mM−1 cm−1 at 600 nm). Reaction mixtures containing SQOR, substrates (H2S, sulfite, CoQ1) and various concentrations of an inhibitor are incubated in 96-well plates for 60 s. The reactions are quenched by addition of formaldehyde and N-ethylmaleimide to denature SQOR and consume unreacted H2S, respectively, and are then incubated for 10 min prior to addition of DCIP. The absorbance at 600 nm is read 30 s after DCIP addition by using a BioTek Synergy 2 plate reader.
The pIC50 is −log10 of the IC50, conventionally taken in molar units. `O=[N+]([O-])c1cc(Cl)c(-n2cccc2)cc1N1CCCCC1` [Compound 2, 1-(4-chloro-2-nitro-5-(1H-pyrrol-1-yl)phenyl)piperidine]: the pIC50 was 7.60.
Still for that read-out and setting: the same measure for `COc1nc2c(c(-c3ccccc3)c1C#N)Cc1ccccc1-2` [Compound 4, 2-methoxy-4-phenyl-5H-indeno[1,2-b]pyridine-3-carbonitrile]: 7.68.
On the same count and under the same terms, the same measure for `CCOc1nc2c(c(-c3ccc(OC)cc3)c1C#N)Cc1ccccc1-2` [Compound 5, 2-ethoxy-4-(4-methoxyphenyl)-5H-indeno[1,2-b]pyridine-3-carbonitrile]: 6.59.
Same read-out and setting: then `COc1nc2c(c(-c3ccccc3Cl)c1C#N)Cc1ccccc1-2` [Compound 6, 4-(2-chlorophenyl)-2-methoxy-5H-indeno[1,2-b]pyridine-3-carbonitrile], with 6.47; and `COc1nc2c(c(-c3ccc(SC)cc3)c1C#N)Cc1ccccc1-2` [Compound 7, 2-methoxy-4-(4-(methylthio)phenyl)-5H-indeno[1,2-b]pyridine-3-carbonitrile], with 6.06.
Regarding `COc1nc2c(c(-c3ccc(C(F)(F)F)cc3)c1C#N)Cc1ccccc1-2` [Compound 8, 2-methoxy-4-(4-(trifluoromethyl)phenyl)-5H-indeno[1,2-b]pyridine-3-carbonitrile], the negative logarithm of the IC50 (pIC50) is 5.96.
In the case of `COc1nc2c(c(-c3cc(Cl)ccc3F)c1C#N)Cc1ccccc1-2` [Compound 9, 4-(5-chloro-2-fluorophenyl)-2-methoxy-5H-indeno[1,2-b]pyridine-3-carbonitrile], the pIC50 was 5.46.
With `COc1cccc(-c2c(C#N)c(OC)nc3c2Cc2ccccc2-3)c1` [Compound 10, 2-methoxy-4-(3-methoxyphenyl)-5H-indeno[1,2-b]pyridine-3-carbonitrile], the pIC50 was 5.21.
Regarding `CCOC(=O)COc1nc(-c2ccccc2)cc(-c2ccccc2)c1C#N` [Compound 11, ethyl 2-((3-cyano-4,6-diphenylpyridin-2-yl)oxy)acetate], the negative-log IC50 (pIC50) is 7.52.
As to `CCOc1nc(-c2ccccc2)cc(-c2ccc3c(c2)OCO3)c1C#N` [Compound 12, 4-(benzo[d][1,3]dioxol-5-yl)-2-ethoxy-6-phenylnicotinonitrile], the pIC50 was 6.05.
Same read-out and setting: the same measure for `CCOc1nc(-c2ccccc2)cc(-c2ccccc2)c1C#N` [Compound 13, 2-ethoxy-4,6-diphenylnicotinonitrile]: 7.72; for `N#Cc1c(-c2ccccc2)cc(-c2ccc(F)cc2)nc1N` [Compound 14, 2-amino-6-(4-fluorophenyl)-4-phenylnicotinonitrile]: 6.22; for `Cc1ccc(C)c(-c2cc(-c3ccc4c(c3)OCO4)c(C#N)c(N)n2)c1` [Compound 15, 2-amino-4-(benzo[d][1,3]dioxol-5-yl)-6-(2,5-dimethylphenyl)nicotinonitrile]: 5.96.
Still for that read-out and setting: the same measure for `Cc1ccc(-c2cc(-c3ccccc3)c(C#N)c(N)n2)cc1` [Compound 16, 2-amino-4-phenyl-6-(p-tolyl)nicotinonitrile]: 4.96; for `N#Cc1c(-c2ccccc2)cc(-c2ccc(O)cc2)nc1N` [Compound 17, 2-amino-6-(4-hydroxyphenyl)-4-phenylnicotinonitrile]: 4.92; for `Cc1ccc(-c2cc(-c3ccc4c(c3)OCO4)c(C#N)c(N)n2)cc1C` [Compound 18, 2-amino-4-(benzo[d][1,3]dioxol-5-yl)-6-(3,4-dimethylphenyl)nicotinonitrile]: 4.85.
Still for that read-out and setting: then `O=[N+]([O-])c1cc(Cl)c(-n2cccc2)cc1N1CCOCC1` [Compound 19, 4-(4-chloro-2-nitro-5-(1H-pyrrol-1-yl)phenyl)morpholine], with 6.36.

Still in this assay, the particulars now being: Table 2, SAR of Set C; read-out: IC50.
Turning to `Cc1ccc(Sc2cc(N3CCOCC3)c(C)cc2[N+](=O)[O-])cc1` [Compound 3, 4-(2-methyl-4-nitro-5-(p-tolylthio)phenyl)morpholine], the pIC50 is 8.10.

Staying with this assay, now noted: Table 3; read-out: IC50.
As to `Cc1cccnc1-c1cc(-c2ccc(F)cc2)c(C#N)c(OCCN2CCOCC2)n1` [2-(2-Morpholinoethoxy)-4-(4-fluorophenyl)-6-(3-methylpyridin-2-yl)pyridine-3-carbonitrile], the negative logarithm of the IC50 (pIC50) was 6.57.
Still for that read-out and setting: then `Cc1cccnc1-c1cc(-c2ccc(F)cc2)c(C#N)c(OCCCN(C)C)n1` [2-(3-(Dimethylamino)propoxy)-4-(4-fluorophenyl)-6-(3-methylpyridin-2-yl)pyridine-3-carbonitrile], with 5.57.
As to `CN(C)CCCOc1nc(-c2ccccn2)cc(-c2ccc(F)cc2)c1C#N` [2-(3-(Dimethylamino)propoxy)-4-(4-fluorophenyl)-6-(pyridin-2-yl)pyridine-3-carbonitrile], the pIC50 was 5.66.
Regarding `Cc1cccnc1-c1cc(-c2ccc(F)cc2)c(C#N)c(OCc2ccccn2)n1` [2-((Pyridin-2-yl)methoxy)-4-(4-fluorophenyl)-6-(3-methylpyridin-2-yl)pyridine-3-carbonitrile], the negative logarithm of the IC50 (pIC50) was 7.49.
For `Cc1cccnc1-c1cc(-c2ccc(F)cc2)c(C#N)c(OCc2cccnc2)n1` [2-((Pyridin-3-yl)methoxy)-4-(4-fluorophenyl)-6-(3-methylpyridin-2-yl)pyridine-3-carbonitrile], the pIC50 is 7.40.
As for `Cc1cccnc1-c1cc(-c2ccc(F)cc2)c(C#N)c(OCc2ccncc2)n1` [2-((Pyridin-4-yl)methoxy)-4-(4-fluorophenyl)-6-(3-methylpyridin-2-yl)pyridine-3-carbonitrile], the pIC50 was 6.92.
For `N#Cc1c(-c2ccc(F)cc2)cc(-c2ccccn2)nc1OC[C@H]1CCC(=O)N1` [2-((R)-5-(Methoxy)pyrrolidin-2-one)-4-(4-fluorophenyl)-6-(pyridin-2-yl)pyridine-3-carbonitrile], the pIC50 is 5.57.
On the same count and under the same terms, then `N#Cc1c(-c2ccc(F)cc2)cc(-c2ccccn2)nc1OC[C@@H]1CCC(=O)N1` [2-((S)-5-(Methoxy)pyrrolidin-2-one)-4-(4-fluorophenyl)-6-(pyridin-2-yl)pyridine-3-carbonitrile], with 4.41; and `C=CCOc1nc(-c2ccccn2)cc(-c2ccc(F)cc2)c1C#N` [2-(Allyloxy)-4-(4-fluorophenyl)-6-(pyridin-2-yl)pyridine-3-carbonitrile], with 8.14.
Turning to `N#CCOc1nc(-c2ccccn2)cc(-c2ccc(F)cc2)c1C#N` [2-(Cyanomethoxy)-4-(4-fluorophenyl)-6-(pyridin-2-yl)pyridine-3-carbonitrile], the pIC50 is 7.60.
On to `COc1nc(-c2ccccc2)cc(-c2ccccc2)c1C` [2-Methoxy-3-methyl-4,6-diphenylpyridine], for which the pIC50 was 6.36.
The same measure, in the same setting: then `COc1nc(-c2ccccc2)cc(-c2cccc([N+](=O)[O-])c2)c1C#N` [2-Methoxy-4-(3-nitrophenyl)-6-phenylpyridine-3-carbonitrile], with 4.32; and `COc1ccc(-c2cc(-c3ncccc3C)nc(OC)c2C#N)cc1` [2-Methoxy-4-(4-methoxyphenyl)-6-(3-methylpyridin-2-yl)pyridine-3-carbonitrile], with 6.17; and `COc1nc(-c2ccccc2)cc(-c2cccc(N)c2)c1C#N` [4-(3-Aminophenyl)-2-methoxy-6-phenylpyridine-3-carbonitrile], with 5.82.
The same measure, in the same setting: then `COc1nc(-c2ccccc2)cc(-c2cccc(O)c2)c1C#N` [4-(3-Hydroxyphenyl)-2-methoxy-6-phenylpyridine-3-carbonitrile], with 5.72.
On the same count and under the same terms, the same measure for `COc1nc(-c2ccccc2)cc(-c2ccc(N)cc2)c1C#N` [4-(4-Aminophenyl)-2-methoxy-6-phenylpyridine-3-carbonitrile]: 7.04; for `COc1nc(-c2ccccc2[N+](=O)[O-])cc(-c2ccc(F)cc2)c1C#N` [4-(4-Fluorophenyl)-2-methoxy-6-(2-nitrophenyl)pyridine-3-carbonitrile]: 8.15; for `COc1nc(-c2ccc(O)cc2)cc(-c2ccc(F)cc2)c1C#N` [4-(4-Fluorophenyl)-6-(4-hydroxyphenyl)-2-methoxypyridine-3-carbonitrile]: 6.00.
As for `COc1nc(-c2ccccc2)cc(-c2ccc(O)cc2)c1C#N` [4-(4-Hydroxyphenyl)-2-methoxy-6-phenylpyridine-3-carbonitrile], the negative logarithm of the IC50 (pIC50) was 6.32.
Regarding `Cc1cccnc1-c1cc(-c2ccc(F)cc2)c(C#N)c(=O)n1CCN1CCOCC1` [4-(4-fluorophenyl)-1,2-dihydro-6-(3-methylpyridin-2-yl)-1-(2-morpholinoethyl)-2-oxopyridine-3-carbonitrile], the negative logarithm of the IC50 (pIC50) is 4.85.
Same read-out and setting: the same measure for `Cc1cccnc1-c1cc(-c2ccc(F)cc2)c(C#N)c(=O)n1Cc1cccnc1` [4-(4-fluorophenyl)-1,2-dihydro-6-(3-methylpyridin-2-yl)-2-oxo-1-((pyridin-3-yl)methyl)pyridine-3-carbonitrile]: 5.00.
For `COc1nc(-c2cccc(O)c2)cc(-c2ccc(F)cc2)c1C#N` [4-(4-fluorophenyl)-6-(3-hydroxyphenyl)-2-methoxypyridine-3-carbonitrile], the negative-log IC50 (pIC50) is 6.64.
On the same count and under the same terms, the same measure for `COc1nc(-c2ccccn2)cc(-c2ccco2)c1C#N` [4-(Furan-2-yl)-2-methoxy-6-(pyridin-2-yl)pyridine-3-carbonitrile]: 6.17; for `CCOc1nc(-c2ccccc2)nc(-c2ccccc2)c1C#N` [4-Ethoxy-2,6-diphenylpyrimidine-5-carbonitrile]: 6.92.
Still for that read-out and setting: then `COc1nc(-c2ccccc2N)cc(-c2ccc(F)cc2)c1C#N` [6-(2-Aminophenyl)-4-(4-fluorophenyl)-2-methoxypyridine-3-carbonitrile], with 6.64.

The same assay, now with this note: read-out: IC50 against SQOR.
`CCOc1nc2c(c(-c3ccc(F)cc3)c1C#N)Cc1ccccc1-2` [Compound 1, 2-ethoxy-4-(4-fluorophenyl)-5H-indeno[1,2-b]pyridine-3-carbonitrile]: the pIC50 is 8.03.
